We go through 42 molecules from US8546414B2, “Ion channel modulators and methods of use” (Vertex Pharmaceuticals Incorporated, priority 2004, dated 2013).

What all share (type): cell-based
For one assay, the target named is T1, CaV2.2 (Homo sapiens, UniProt Q00975).
T1 construct: expressed in transfected cells; host or cells: HEK293
The assay can be described thus: VIPR optical membrane potential assay with electrical stimulation, CaV2.2. Particulars: Table 9, CaV 2.2 receptors. An outline of the steps:
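HEK293 cells stably expressing CaV2.2 stained with CC2-DMPE/DiSBAC2(3) voltage-sensitive dyes (10 μM final CC2-DMPE, 30 min, RT), then compound added and cells electrically stimulated for 3-5 s. Read-out: background-subtracted 460/580 nm emission ratio; response R=Rf/Ri (post- vs pre-stimulus ratio); antagonism seen as reduced response.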

In another assay the target is T2, NaV1.3 (Homo sapiens, UniProt Q9NY46).
T2 construct: expressed in transfected cells; host or cells: HEK293
The assay can be described thus: VIPR optical membrane potential assay with electrical stimulation, NaV1.3. The note with it: Table 9, NaV 1.3 receptors. An outline of the steps: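 HEK293 cells stably expressing NaV1.3, stained with CC2-DMPE (10 μM final) then DiSBAC2(3) with ABSC1, 30 min each at RT; compounds added with oxonol. Electrical stimulation for 3 s; 460/580 nm background-subtracted emission ratio Rf/Ri, normalised to tetracaine (positive) and untreated (negative) controls.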

The next assay concerns the target NaV1.8 (Homo sapiens, UniProt Q9Y5Y9). The assay can be described thus: VIPR optical membrane potential assay, NaV1.8 (other subtypes in an analogous mode). Particulars: Table 9, NaV 1.8 receptors. An outline of the steps: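 Cells expressing the NaV subtype stained with coumarin and DiSBAC2(3) membrane-potential dyes, then incubated with test compound for 20-30 minutes. Depolarization evoked by sodium addback and read optically on VIPR; block measured as reduced membrane-potential response, with tetracaine as positive control.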

As usually defined, the IC50 is the concentration that gives 50% inhibition. A lower IC50 goes with inhibition by little substance.

T1 sequence (Q00975 whole entry): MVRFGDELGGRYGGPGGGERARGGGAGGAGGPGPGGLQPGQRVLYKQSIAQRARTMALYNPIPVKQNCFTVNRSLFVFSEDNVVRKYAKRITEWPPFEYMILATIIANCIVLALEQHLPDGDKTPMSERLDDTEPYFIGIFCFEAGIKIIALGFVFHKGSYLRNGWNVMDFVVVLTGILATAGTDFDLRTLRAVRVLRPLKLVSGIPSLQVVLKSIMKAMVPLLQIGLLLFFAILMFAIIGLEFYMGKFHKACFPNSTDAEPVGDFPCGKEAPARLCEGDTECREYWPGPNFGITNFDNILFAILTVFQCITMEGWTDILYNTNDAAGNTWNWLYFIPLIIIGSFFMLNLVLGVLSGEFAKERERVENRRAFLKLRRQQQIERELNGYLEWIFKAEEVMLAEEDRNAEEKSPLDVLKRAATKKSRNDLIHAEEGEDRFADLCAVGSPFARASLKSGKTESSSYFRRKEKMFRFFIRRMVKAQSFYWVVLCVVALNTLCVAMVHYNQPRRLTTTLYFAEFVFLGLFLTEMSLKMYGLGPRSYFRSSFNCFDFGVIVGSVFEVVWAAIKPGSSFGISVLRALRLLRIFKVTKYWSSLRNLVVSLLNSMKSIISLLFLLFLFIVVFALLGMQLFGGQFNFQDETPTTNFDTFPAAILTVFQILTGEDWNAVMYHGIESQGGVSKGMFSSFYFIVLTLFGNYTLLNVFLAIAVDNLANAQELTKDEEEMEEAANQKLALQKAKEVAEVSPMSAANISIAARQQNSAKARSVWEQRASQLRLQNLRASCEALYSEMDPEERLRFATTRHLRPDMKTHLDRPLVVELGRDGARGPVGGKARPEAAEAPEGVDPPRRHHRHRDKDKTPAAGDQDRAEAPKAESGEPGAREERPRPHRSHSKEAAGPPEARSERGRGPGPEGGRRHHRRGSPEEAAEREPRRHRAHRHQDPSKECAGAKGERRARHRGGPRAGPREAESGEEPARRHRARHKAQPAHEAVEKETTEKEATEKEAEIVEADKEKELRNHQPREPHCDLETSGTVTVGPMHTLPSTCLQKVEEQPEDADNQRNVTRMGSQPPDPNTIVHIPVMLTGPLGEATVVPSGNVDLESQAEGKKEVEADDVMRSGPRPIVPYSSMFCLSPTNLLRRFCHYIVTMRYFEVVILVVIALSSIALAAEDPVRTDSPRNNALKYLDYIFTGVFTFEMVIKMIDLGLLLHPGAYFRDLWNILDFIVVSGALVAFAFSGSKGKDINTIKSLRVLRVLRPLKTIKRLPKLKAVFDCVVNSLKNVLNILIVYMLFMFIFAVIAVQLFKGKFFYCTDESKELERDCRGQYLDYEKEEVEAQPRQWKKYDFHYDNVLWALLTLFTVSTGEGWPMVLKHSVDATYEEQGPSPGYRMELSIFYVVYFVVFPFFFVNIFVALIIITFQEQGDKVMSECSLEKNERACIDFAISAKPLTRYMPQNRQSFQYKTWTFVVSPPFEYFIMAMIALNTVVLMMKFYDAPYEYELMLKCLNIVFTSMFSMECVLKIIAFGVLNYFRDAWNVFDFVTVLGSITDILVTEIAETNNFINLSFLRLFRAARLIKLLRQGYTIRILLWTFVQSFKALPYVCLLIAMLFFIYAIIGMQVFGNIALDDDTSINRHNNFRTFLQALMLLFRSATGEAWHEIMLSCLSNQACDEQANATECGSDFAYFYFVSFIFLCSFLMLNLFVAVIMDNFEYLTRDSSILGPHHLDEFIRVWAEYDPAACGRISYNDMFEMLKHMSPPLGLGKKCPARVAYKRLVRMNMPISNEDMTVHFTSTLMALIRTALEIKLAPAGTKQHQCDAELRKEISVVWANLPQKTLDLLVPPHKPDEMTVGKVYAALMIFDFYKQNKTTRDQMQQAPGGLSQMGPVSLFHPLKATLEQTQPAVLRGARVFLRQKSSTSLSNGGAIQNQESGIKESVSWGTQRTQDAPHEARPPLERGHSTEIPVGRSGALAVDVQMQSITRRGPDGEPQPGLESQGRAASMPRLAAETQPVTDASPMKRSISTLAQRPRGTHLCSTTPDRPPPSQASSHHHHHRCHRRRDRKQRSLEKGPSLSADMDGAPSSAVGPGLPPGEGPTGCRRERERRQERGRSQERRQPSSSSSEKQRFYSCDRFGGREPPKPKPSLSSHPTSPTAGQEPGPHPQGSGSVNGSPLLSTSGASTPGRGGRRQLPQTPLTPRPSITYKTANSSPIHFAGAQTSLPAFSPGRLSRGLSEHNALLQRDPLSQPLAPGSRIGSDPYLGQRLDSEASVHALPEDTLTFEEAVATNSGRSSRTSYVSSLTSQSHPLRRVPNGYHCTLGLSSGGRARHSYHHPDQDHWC
T1 sequence (P54284 whole entry partner): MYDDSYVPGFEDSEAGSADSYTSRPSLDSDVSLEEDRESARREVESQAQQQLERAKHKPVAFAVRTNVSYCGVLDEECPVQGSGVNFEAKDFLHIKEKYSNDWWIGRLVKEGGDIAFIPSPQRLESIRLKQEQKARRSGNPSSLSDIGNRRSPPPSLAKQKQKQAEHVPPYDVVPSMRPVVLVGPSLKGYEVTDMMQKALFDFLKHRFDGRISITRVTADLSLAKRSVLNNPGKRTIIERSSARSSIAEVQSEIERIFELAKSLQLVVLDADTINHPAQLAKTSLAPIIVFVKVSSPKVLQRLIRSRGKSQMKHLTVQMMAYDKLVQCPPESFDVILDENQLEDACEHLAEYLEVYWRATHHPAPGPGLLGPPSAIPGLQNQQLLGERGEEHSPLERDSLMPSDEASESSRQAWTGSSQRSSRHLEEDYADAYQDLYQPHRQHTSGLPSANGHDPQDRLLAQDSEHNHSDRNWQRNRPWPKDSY
T1 sequence (P54289 25-956 partner limits assumed): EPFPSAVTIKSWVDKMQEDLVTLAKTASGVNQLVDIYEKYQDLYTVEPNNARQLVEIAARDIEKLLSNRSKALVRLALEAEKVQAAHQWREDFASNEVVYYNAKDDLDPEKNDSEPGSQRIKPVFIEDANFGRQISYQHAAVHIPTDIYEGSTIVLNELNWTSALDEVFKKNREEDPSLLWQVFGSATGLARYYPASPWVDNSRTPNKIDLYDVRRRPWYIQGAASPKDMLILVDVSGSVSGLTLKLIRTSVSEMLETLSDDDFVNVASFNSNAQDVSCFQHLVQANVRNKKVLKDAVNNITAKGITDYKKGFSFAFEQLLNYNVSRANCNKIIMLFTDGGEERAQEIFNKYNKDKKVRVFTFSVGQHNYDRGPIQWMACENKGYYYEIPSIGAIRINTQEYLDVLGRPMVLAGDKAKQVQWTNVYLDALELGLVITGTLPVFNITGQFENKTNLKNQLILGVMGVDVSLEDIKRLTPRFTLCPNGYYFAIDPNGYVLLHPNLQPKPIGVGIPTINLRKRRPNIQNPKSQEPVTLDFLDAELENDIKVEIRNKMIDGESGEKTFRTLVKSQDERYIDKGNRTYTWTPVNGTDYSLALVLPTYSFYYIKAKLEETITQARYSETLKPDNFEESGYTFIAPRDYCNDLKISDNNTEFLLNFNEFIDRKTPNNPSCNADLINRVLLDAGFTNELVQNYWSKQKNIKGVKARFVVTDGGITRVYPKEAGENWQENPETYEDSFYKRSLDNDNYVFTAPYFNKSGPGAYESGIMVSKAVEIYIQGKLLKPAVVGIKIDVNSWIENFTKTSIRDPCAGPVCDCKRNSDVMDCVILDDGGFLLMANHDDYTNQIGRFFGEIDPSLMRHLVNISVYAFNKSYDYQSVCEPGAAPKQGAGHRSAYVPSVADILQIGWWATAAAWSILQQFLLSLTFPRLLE
T1 sequence (P54289 957-1103 partner limits assumed): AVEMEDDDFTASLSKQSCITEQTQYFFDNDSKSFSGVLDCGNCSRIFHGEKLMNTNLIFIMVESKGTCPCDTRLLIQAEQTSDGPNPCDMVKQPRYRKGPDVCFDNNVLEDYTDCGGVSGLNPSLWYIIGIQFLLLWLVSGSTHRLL

As to `COc1cccc(N(C(=O)c2cnc(N3CCC4CCCCC4C3)nc2-c2ccccc2F)C2CCCC2)c1` (stereo not drawn) [compound 154], the IC50 was 2 to 10 µM at CaV2.2, more than 10 µM against NaV1.3 and more than 10 µM on NaV1.8.

In the case of `CC(C)N(C(=O)c1cnc(N2CCCCC2)nc1-c1ccccc1Cl)C1CCSC1` (stereo not drawn) [compound 155], the IC50 at CaV2.2 was 2 to 10 µM; against NaV1.3 it was more than 10 µM; on NaV1.8, more than 10 µM.

Take `C=CCN(CC=C)c1ncc(C(=O)N(Cc2ccccc2)C(C)C)c(-c2ccccc2F)n1` [compound 156]: the values for the IC50 at CaV2.2, at NaV1.3 and against NaV1.8 were less than 2 µM, 2 to 10 µM and 2 to 10 µM, respectively.

Take `O=C(c1cnc(N2CCSCC2)nc1-c1ccccc1F)N(Cc1ccccc1)C1CCCC1` [compound 157]: the values for the IC50 on CaV2.2, on NaV1.3 and at NaV1.8 were 2 to 10 µM, 2 to 10 µM and more than 10 µM, respectively.

With `COc1cccc(N(C(=O)c2cnc(N3CCCCC3)nc2-c2ccccc2F)C2CC2)c1` [compound 158], the IC50 at CaV2.2, on NaV1.3 and at NaV1.8 was more than 10 µM in each case.

For the molecule `O=C(c1cnc(N2CCOCC2)nc1-c1ccccc1F)N(Cc1ccccc1)C1CCCC1` [compound 159], the IC50 against CaV2.2, against NaV1.3 and against NaV1.8 was 2 to 10 µM each time.

Turning to `COc1cccc(N(C(=O)c2cnc(N3CCOCC3)nc2-c2ccccc2F)C(C)C)c1` [compound 160], the IC50 against CaV2.2, at NaV1.3 and on NaV1.8 was more than 10 µM in each case.

For `CC(C)(C)c1ccc(CN(C(=O)c2cnc(N3CCOCC3)nc2-c2ccccc2F)C2CC2)cc1` [compound 161], the IC50 on CaV2.2, against NaV1.3 and at NaV1.8 was 2 to 10 µM throughout.

As for `COc1cccc(CN(C(=O)c2cnc(N3CCC4CCCCC4C3)nc2-c2ccccc2F)C(C)C)c1` (stereo not drawn) [compound 162], the IC50 against CaV2.2 is less than 2 µM; against NaV1.3 it was less than 2 µM; against NaV1.8, more than 10 µM.

Turning to `Cc1cccc(CN(C(=O)c2cnc(N3CCOCC3)nc2-c2ccccc2F)C2CC2)c1` [compound 163], the IC50 against CaV2.2 is 2 to 10 µM; against NaV1.3, more than 10 µM; on NaV1.8, more than 10 µM.

`COc1ccc(CN(C(=O)c2cnc(N3CCSCC3)nc2-c2ccccc2F)C2CC2)cc1` [compound 164]: the IC50 at CaV2.2, against NaV1.3 and on NaV1.8 was 2 to 10 µM in each case.

`CC(C)N(C(=O)c1cnc(N2CCOCC2)nc1-c1ccccc1F)c1cccc(C(C)(C)C)c1` [compound 165]: the IC50 at CaV2.2 is more than 10 µM; at NaV1.3 it was 2 to 10 µM; at NaV1.8 it was more than 10 µM.

Turning to `CC(C)N(Cc1ccccc1)C(=O)c1cnc(N2CCN(C)CC2)nc1-c1ccccc1F` [compound 167], the IC50 against CaV2.2, at NaV1.3 and on NaV1.8 was more than 10 µM each time.

Regarding `CC(=O)Nc1ccc(-c2nc(N3CCOCC3)ncc2C(=O)N(Cc2ccccc2)C(C)C)cc1` [compound 168], the IC50 at CaV2.2, against NaV1.3 and on NaV1.8 was more than 10 µM in each case.

Take `COc1cccc(N(C(=O)c2cnc(N3CCOCC3)nc2-c2ccccc2F)C2CCCC2)c1` [compound 169]: the IC50 against CaV2.2 is more than 10 µM; on NaV1.3, 2 to 10 µM; at NaV1.8 it was more than 10 µM.

With `CC(C)Oc1ccc(-c2nc(N3CCOCC3)ncc2C(=O)N(Cc2ccccc2)C(C)C)cc1` [compound 170], the IC50 against CaV2.2, on NaV1.3 and at NaV1.8 was more than 10 µM throughout.

Turning to `CC(C)N(C(=O)c1cnc(N2CCCCC2)nc1-c1ccccc1F)c1ccc2c(c1)OCCO2` [compound 171], the IC50 was 2 to 10 µM against CaV2.2, 2 to 10 µM on NaV1.3 and more than 10 µM against NaV1.8.

Take `CC(C)N(C(=O)c1cnc(N2CCOCC2)nc1-c1ccccc1F)C1CCSC1` (stereo not drawn) [compound 172]: the IC50 against CaV2.2, against NaV1.3 and against NaV1.8 was more than 10 µM throughout.

In the case of `CC(C)N(Cc1ccccc1)C(=O)c1cnc(NCCc2cccc(C(F)(F)F)c2)nc1-c1ccccc1F` [compound 173], the half-inhibitory concentration (IC50) on CaV2.2 was less than 2 µM; at NaV1.3, 2 to 10 µM; against NaV1.8, more than 10 µM.

With `O=C(NC1CCC1)c1cnc(N2CCOCC2)nc1-c1ccccc1F` [compound 174], the IC50 against CaV2.2, against NaV1.3 and against NaV1.8 was more than 10 µM each time.

In the case of `COc1cccc(N(C(=O)c2cnc(N3CCCCC3)nc2-c2ccccc2Cl)C(C)C)c1` [compound 175], the figures for the IC50 on CaV2.2, on NaV1.3 and against NaV1.8 were 2 to 10 µM, 2 to 10 µM and more than 10 µM, respectively.

For the molecule `CN1CCN(c2ncc(C(=O)N(Cc3ccc(C(C)(C)C)cc3)C3CC3)c(-c3ccccc3F)n2)CC1` [compound 176], the IC50 is 2 to 10 µM against CaV2.2, more than 10 µM against NaV1.3 and more than 10 µM against NaV1.8.

Take `CC(C)N(Cc1ccccc1)C(=O)c1cnc(Nc2cccc(Cl)c2)nc1-c1ccccc1F` [compound 177]: the IC50 against CaV2.2, against NaV1.3 and on NaV1.8 was more than 10 µM each time.

Regarding `CC(C)N(C(=O)c1cnc(N2CCOCC2)nc1-c1ccccc1F)c1cccc([N+](=O)[O-])c1` [compound 178], the IC50 at CaV2.2, against NaV1.3 and against NaV1.8 was more than 10 µM in each case.

Consider `CN1CCN(c2ncc(C(=O)N(Cc3ccccc3)C3CCC3)c(-c3ccccc3F)n2)CC1` [compound 180], for which the IC50 against CaV2.2 was 2 to 10 µM; on NaV1.3 it was 2 to 10 µM; against NaV1.8, more than 10 µM.

Take `CC(C)N(Cc1ccccc1)C(=O)c1cnc(Nc2ccc(F)cc2)nc1-c1ccccc1F` [compound 181]: the IC50 at CaV2.2, against NaV1.3 and against NaV1.8 was more than 10 µM each time.

Turning to `CC(C)N(C(=O)c1cnc(N2CCOCC2)nc1-c1ccccc1F)c1ccc2c(c1)OCO2` [compound 182], the IC50 on CaV2.2 is 2 to 10 µM; on NaV1.3, more than 10 µM; at NaV1.8, more than 10 µM.

As for `COc1cccc(N(C(=O)c2cnc(N3CCOCC3)nc2-c2ccccc2F)C2CC2)c1` [compound 183], the IC50 at CaV2.2, against NaV1.3 and at NaV1.8 was more than 10 µM throughout.

With `COc1ccc(CN(C(=O)c2cnc(N3CCC4CCCCC4C3)nc2-c2ccccc2F)C2CC2)cc1` (stereo not drawn) [compound 184], the IC50 against CaV2.2 is 2 to 10 µM; against NaV1.3, more than 10 µM; on NaV1.8, more than 10 µM.

As to `COc1ccc(N(C(=O)c2cnc(N3CCOCC3)nc2-c2ccccc2F)C(C)C)cc1` [compound 185], the IC50 was 2 to 10 µM against CaV2.2, more than 10 µM against NaV1.3 and more than 10 µM at NaV1.8.

In the case of `COc1cccc(CN(C(=O)c2c(C)nc(N3CCOCC3)nc2-c2ccccc2F)C(C)C)c1` [compound 186], the IC50 against CaV2.2 is 2 to 10 µM; on NaV1.3, 2 to 10 µM; at NaV1.8, more than 10 µM.

For `O=C(c1cnc(N2CCOCC2)nc1-c1ccccc1F)N1Cc2ccccc2C1` [compound 187], the IC50 against CaV2.2, against NaV1.3 and against NaV1.8 was more than 10 µM in each case.

Take `COc1cccc(CN(C(=O)c2cnc(NC(C)c3ccccc3)nc2-c2ccccc2F)C(C)C)c1` (stereo not drawn) [compound 188]: the IC50 on CaV2.2 is less than 2 µM; at NaV1.3, less than 2 µM; at NaV1.8, 2 to 10 µM.

For the molecule `COc1cccc(N(C(=O)c2cnc(N3CCC4CCCCC4C3)nc2-c2ccccc2F)C2CC2)c1` (stereo not drawn) [compound 189], the IC50 was 2 to 10 µM at CaV2.2, more than 10 µM against NaV1.3 and more than 10 µM against NaV1.8.

In the case of `COc1cccc(N(C(=O)c2cnc(N3CCOCC3)nc2-c2ccccc2F)C2CCC2)c1` [compound 190], the IC50 against CaV2.2 was more than 10 µM; at NaV1.3, 2 to 10 µM; on NaV1.8 it was more than 10 µM.

`O=C(c1cnc(N2CCOCC2)nc1-c1ccccc1F)N1CCCC(c2ccc(F)cc2)C1` (stereo not drawn) [compound 191]: the IC50 at CaV2.2, on NaV1.3 and on NaV1.8 was more than 10 µM each time.

Consider `Cc1nc(N2CCCCC2)nc(-c2ccccc2F)c1C(=O)N(Cc1ccc2c(c1)CCO2)C1CC1` [compound 192], for which the IC50 against CaV2.2, on NaV1.3 and against NaV1.8 was more than 10 µM throughout.

With `COc1ccc(CN(C(=O)c2cnc(N3CCN(C)CC3)nc2-c2ccccc2F)C2CC2)cc1` [compound 193], the IC50 at CaV2.2, against NaV1.3 and at NaV1.8 was more than 10 µM in each case.

Regarding `CC(C)N(Cc1ccccc1)C(=O)c1cnc(N2CCOCC2)nc1-c1ccccc1Cl` [compound 194, N-benzyl-4-(2-chlorophenyl)-N-isopropyl-2-morpholinopyrimidine-5-carboxamide], the IC50 against CaV2.2 was less than 2 µM; at NaV1.3 it was 2 to 10 µM; on NaV1.8 it was 2 to 10 µM.

For `O=C(c1cnc(N2CCOCC2)nc1-c1ccccc1F)N(Cc1cccc(C(F)(F)F)c1)C1CC1` [compound 195], the IC50 against CaV2.2 was 2 to 10 µM; against NaV1.3 it was more than 10 µM; against NaV1.8, more than 10 µM.

Take `O=C(NC1CCCCC1)c1cnc(N2CCOCC2)nc1-c1ccccc1F` [compound 196]: the IC50 on CaV2.2, against NaV1.3 and on NaV1.8 was more than 10 µM each time.

In the case of `COc1cccc(N(C(=O)c2cnc(N3CCOCC3)nc2-c2ccccc2F)C2CCOCC2)c1` [compound 197], the IC50 against CaV2.2, on NaV1.3 and against NaV1.8 was more than 10 µM throughout.
